Earlier results in US20230064685A1, “METHODS AND COMPOSITIONS TO INHIBIT SYMPTOMS ASSOCIATED WITH VEISALGIA” (SEN-JAM PHARMACEUTICAL LLC, priority 2015, published 2023).

Columns and labels:
[1] = tested on: hangover symptom of thirst; settings: each drug alone; general statement, no test described
[2] = tested on: alcohol hangover; settings: randomized controlled trials reviewed by Pittler et al. 2005

CC(C)(C(=O)O)c1ccc(C(O)CCCN2CCC(C(O)(c3ccccc3)c3ccccc3)CC2)cc1 (racemic) [fexofenadine, (±)-4-[1 hydroxy-4-[4-(hydroxydiphenylmethyl)-1-piperidinyl]-butyl]-α, α-dimethyl benzeneacetic acid]
effect or side effect of reducing thirst [1]: neither naproxen nor fexofenadine, alone, has shown any effect or side effect of reducing thirst

Cc1c(Cl)cccc1Nc1ccccc1C(=O)O [tolfenamic acid]
intergroup differences for overall symptom scores and individual symptoms [2]: Significant intergroup differences

CCCCC/C=C\C/C=C\C/C=C\CCCCC(=O)O [γ linolenic acid from B officinalis, γ linolenic acid]
intergroup differences for overall symptom scores and individual symptoms [2]: Significant intergroup differences

COc1ccc2cc(C(C)C(=O)O)ccc2c1 (stereo not drawn) [naproxen, 6-methoxy-α-methyl-2-naphthaleneacetic acid]
effect or side effect of reducing thirst [1]: neither naproxen nor fexofenadine, alone, has shown any effect or side effect of reducing thirst
